According to patent publication US6616940B2, “Process for decreasing adiposity using Vitamin A as a dietary supplement” (The Procter & Gamble Company, priority 1998, dated 2003):

Assays:
[1] = Whole body oxygen consumption (basal and CGP-12177-stimulated); format: in vivo; settings: rats on normal and vitamin A supplemented diets, 0.75 mg/kg i.p., vs saline injected rats
Procedure: (§1) Rats were fed a diet containing either, 8,643 IU retinol/kg diet (normal diet) or 430,431 IU retinol/kg diet (vitamin A supplemented diet) for a period of 8 weeks. Food and water were provided ad libitum. Body weights and food intake were recorded weekly. Basal whole body oxygen consumption was measured before starting the diet and then after week 3, 6 and 8 on the diet. At the end of 8 weeks, half the rats from each group were challenged with a single dose of the β3 adrenergic specific agonist, CGP-12177 (prepared in pyrogen-free saline, available from Ciba-Geigy, Summit, N.J.) (0.75 mg/kg, i.p.) or saline. The stimulated whole body oxygen consumption was measured and the animals sacrificed 4 hours after injection.
O2 consumption was assessed on up to four rats simultaneously with an Oxyscan analyzer (OXS-4; Amniotic Electronics, Columbus, Ohio). All experiments were performed on conscious unanesthetized rats during the light phase of the light-dark cycle. Flow rates were 2 L/min with a 30 second sampling time at 5 minute intervals. The temperature was maintained at 26° C. Results were expressed on a mass-dependent basis (ml/min/kg^0.67). The cumulative increase in the CGP12177-stimulated oxygen consumption was calculated as the average increase over baseline from 30 min to 110 min, post injection.

leptin mRNA = experiment: Leptin mRNA levels in PWAT (dot-blot); format: in vivo, rats; settings: CGP-12177 0.75 mg/kg i.p.
Procedure: (§2) Rats were fed a diet containing either, 8,643 IU retinol/kg diet (normal diet) or 430,431 IU retinol/kg diet (vitamin A supplemented diet) for a period of 8 weeks. Food and water were provided ad libitum. Body weights and food intake were recorded weekly. Basal whole body oxygen consumption was measured before starting the diet and then after week 3, 6 and 8 on the diet. At the end of 8 weeks, half the rats from each group were challenged with a single dose of the β3 adrenergic specific agonist, CGP-12177 (prepared in pyrogen-free saline, available from Ciba-Geigy, Summit, […].) or saline. The stimulated whole body oxygen consumption was measured and the animals sacrificed 4 hours after injection. Total cellular RNA was extracted using a modification of the method described in Chomczynski and Sacchi, “Single step method of RNA isolation by acid guanidinium thiocyanate-phenolchloroform extraction”, Analytical Biochemistry 162:156-159 (1987). […] The RNA was quantified by spectrophotometric absorption at 260 nm using multiple dilutions of each sample. […] The latent image was scanned using a Phosphor Imager (Molecular Dynamic, Sunnyvale, Calif.) and analyzed by Image Quant Software (Molecular Dynamics). Intensities per μg total cellular RNA were calculated by comparison to internal laboratory standards of WAT or BAT total RNA present on each nylon membrane.

β-actin mRNA = β-actin mRNA levels in BAT; format: in vivo, rats; settings: CGP-12177 0.75 mg/kg i.p., 4 h, mean ± SE
Procedure: as §2

UCP2 mRNA = UCP2 mRNA levels in PWAT and BAT; format: in vivo, rats; settings: CGP-12177 0.75 mg/kg i.p., 4 h, mean ± SE
Procedure: as §1
(§3) Total cellular RNA was extracted using a modification of the method described in Chomczynski and Sacchi, “Single step method of RNA isolation by acid guanidinium thiocyanate-phenolchloroform extraction”, Analytical Biochemistry 162:156-159 (1987). The integrity of the isolated RNA was verified using 1% agarose gels stained with ethidium bromide. The RNA was quantified by spectrophotometric absorption at 260 nm using multiple dilutions of each sample.
(§4) For dot-blot analysis, multiple concentrations of RNA were immobilized on nylon membranes using a dot-blot apparatus (Biorad, Richmond, Calif.). The membranes were baked at 80° C. for 2 hrs. The baked membranes were prehybridized using 25 mM potassium phosphate, 750 mM NaCl, 75 mM Na citrate, 5× Denhardt's solution, 50 μg/ml denatured salmon sperm DNA, and 50% formamide. After incubation for 14-16 hrs. at 42° C, the membranes were hybridized with ^32P labeled probes in the prehybridization buffer plus 10% dextran sulfate. After hybridization for 14-16 hr at 42° C., the membranes were washed and exposed to a phosphor imaging screen for 48 hrs. The latent image was scanned using a Phosphor Imager (Molecular Dynamic, Sunnyvale, Calif.) and analyzed by Image Quant Software (Molecular Dynamics). Intensities per μg total cellular RNA were calculated by comparison to internal laboratory standards of WAT or BAT total RNA present on each nylon membrane.

[2] = system: β3-adrenergic receptor mRNA; experiment: β3-adrenergic receptor mRNA levels in PWAT and BAT; format: in vivo, rats; settings: for β3AR mRNA levels, BAT / β3AR mRNA levels, PWAT: CGP-12177 0.75 mg/kg i.p., 4 h, mean ± SE
Procedure: as §1, §3, §4

UCP1 mRNA = UCP1 mRNA levels in BAT (dot-blot); format: in vivo; settings: rats on both vitamin A supplemented and normal diets, 0.75 mg/kg i.p., 4 h (FIG. 4)
Procedure: as §2

**Q.** What does the source list for `CC(C)(C)NCC(O)COc1cccc2[nH]c(=O)[nH]c12` (stereo not shown) [CGP-12177]?
**A.** Oxygen consumption upon administration of CGP-12177 [1]: rapid and sustained increase; Suppression of leptin mRNA levels in PWAT (leptin mRNA; rats on normal diet, 4 hr (FIG. 2)): 27%; Effect on leptin mRNA levels in PWAT (leptin mRNA; rats on vitamin A supplemented diet, 4 hr, vs saline on same diet): no further effect; β-actin mRNA levels, BAT (β-actin mRNA; Normal Diet): 98.6 ± 7.4 arbitrary units; β-actin mRNA levels, BAT (β-actin mRNA; Vitamin A supplemented diet): 93.8 ± 8.0 arbitrary units; UCP2 mRNA levels, BAT (UCP2 mRNA; Normal Diet): 93.4 ± 12.2 arbitrary units; UCP2 mRNA levels, PWAT (UCP2 mRNA; Normal Diet, 0.75 mg/kg): 109 ± 10 arbitrary units; UCP2 mRNA levels, PWAT (UCP2 mRNA; Normal Diet, listed as CGP12177, 0.75 mg/kg): no effect; UCP2 mRNA levels, BAT (UCP2 mRNA; Vitamin A supplemented diet): 94 ± 8.9 arbitrary units; UCP2 mRNA levels, PWAT (UCP2 mRNA; Vitamin A supplemented diet): 110 ± 10 arbitrary units; Down regulation of β3-adrenergic receptor mRNA levels in BAT ([2]; CGP-12177 for 4 h, rats on vitamin A supplemented and normal diets, vs saline treated): 50%; β3AR mRNA levels, BAT ([2]; Normal Diet): 50.9 ± 3.3 arbitrary units; β3AR mRNA levels, PWAT ([2]; Normal Diet): 105 ± 6.0 arbitrary units; β3AR mRNA levels, BAT ([2]; Vitamin A supplemented diet): 59.8 ± 7.9 arbitrary units; β3AR mRNA levels, PWAT ([2]; Vitamin A supplemented diet): 112 ± 11 arbitrary units; UCP1 mRNA levels in BAT upon administration of CGP-12177 (UCP1 mRNA): significant but similar increase
